Measurements taken from article PMC4527344 (Tetrahedron letters, 2015).
≈ marks a conversion by molar mass, not a printed value. Like-named read-outs stand apart in the source and are kept apart here.

Key:
M. tuberculosis H37Rv [1] = assay type: cell-based, Mycobacterium tuberculosis
M. tuberculosis = test: metabolomics: intramycobacterial accumulation and metabolism; assay type: cell-based, Mycobacterium tuberculosis; settings: dose-dependent
[2] = Middlebrook 7H9 media supplemented with albumin, dextrose, and saline
M. tuberculosis H37Rv [3] = settings: cited from earlier work
[4] = target: enoyl acyl-carrier protein reductase (InhA); settings: InhA enzymatic activity; cited from earlier work

Question: Which results are given for `CCOC(=O)CSc1nc(N)c2c3c(sc2n1)CC(C(C)(C)C)CC3` (stereo not drawn) [CD117]?
Answer: MIC (M. tuberculosis H37Rv [1]): 0.39 µg/mL (≈ 1.03 µM); permeation of the M. tuberculosis cell wall (M. tuberculosis): permeate the M. tuberculosis cell wall; stability in growth media [2]: stable; MIC (M. tuberculosis H37Rv [3]; M. tuberculosis H37Rv lab strain, previously reported): 0.39 µg/mL; MIC (M. tuberculosis H37Rv [3]; M. tuberculosis H37Rv, 0.39 μg/mL expressed in μM): 1.0 µM; IC50 [4]: 34 ± 6 µM
